Patent US11203772B2, “Chemoenzymatic synthesis of structurally homogeneous ultra-low molecular weight heparins” (The University of North Carolina at Chapel Hill, priority 2010, dated 2021)

What was measured:
factor Xa [1] = conditions: rabbit, in vivo, sc, 120 ug/kg
antithrombin (AT) = molecular target: T1, antithrombin (AT) (Homo sapiens, UniProt P01008); assay: Binding to antithrombin (AT) by affinity coelectrophoresis; conditions: affinity co-electrophoresis, 35S-labeled compound
T1 construct: purchased Cutter Biological
T1 sequence (P01008 33-464): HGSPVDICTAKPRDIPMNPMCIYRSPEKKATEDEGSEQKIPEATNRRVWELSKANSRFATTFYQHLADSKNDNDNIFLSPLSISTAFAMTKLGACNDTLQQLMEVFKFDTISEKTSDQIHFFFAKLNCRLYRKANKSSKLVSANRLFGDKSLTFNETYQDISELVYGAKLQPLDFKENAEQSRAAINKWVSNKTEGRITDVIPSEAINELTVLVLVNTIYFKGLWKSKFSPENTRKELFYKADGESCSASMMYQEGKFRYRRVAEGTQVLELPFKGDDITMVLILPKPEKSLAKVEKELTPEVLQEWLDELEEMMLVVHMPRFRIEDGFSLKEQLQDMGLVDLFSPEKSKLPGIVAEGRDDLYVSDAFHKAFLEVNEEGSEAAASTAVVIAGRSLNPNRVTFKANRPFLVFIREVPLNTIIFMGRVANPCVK
Protocol: The dissociation constant (Kd) of each sample and AT was determined using affinity co-electrophoresis (Lee & Lander, 1991). Approximately 4000-5000 cpm of antithrombin-binding ^35S-labeled ULMW heparin construct 1 or 2 was loaded per lane with zones of AT at concentrations 0, 4, 8, 16, 32, 60, 120, 240 and 500 nM. The gel was performed at 400 mA for 2 hours, dried and analyzed on a Phospholmager Storm 860 (Amersham Biosciences, Uppsala, Sweden). The retardation coefficient was calculated at R=(M0-M)/M0, where M0 is the mobility of the polysaccharide through the zone without AT, and M is the mobility of the sample through each separation zone. The retardation coefficient was then plotted against the retardation coefficient divided by its respective concentration of AT. The slope of the line represents −1/Kd.

factor Xa [2] = assay: Anticoagulant activity in vivo: anti-Xa activity of rabbit plasma samples; conditions: rabbits, subcutaneous, 120 μg/kg; compared with one another
bovine factor Xa = assay: Inhibition of factor Xa activity (anti-Xa, chromogenic substrate S-2765, with AT); type: biochemical; conditions: with human AT, read-out: IC50 value, in vitro anti-Xa activity
Protocol: Inhibition effect of the ULMW heparin compounds on the activity of factor Xa. Assays were based on a previously published method (Zhang et al., 2001; Duncan et al., 2004). Briefly, bovine factor Xa (Sigma, St. Louis, Mo., United States of America) was diluted to 5 U/ml with PBS containing 1 mg/ml BSA. Human AT (Cutter Biological) was diluted with PBS containing 1 mg/ml BSA to give a stock solution at the concentration of 27 μM. The chromogenic substrates, S-2765 was from Diapharma and made up at 1 mM in water. The oligosaccharide (ARIXTRA® synthetic ULMW heparin pentasaccharide, ULMW heparin construct 1 and 2) was dissolved in PBS at various concentrations (0.5 to 50 nM). The reaction mixture, which included 25 μl of AT stock solution and 25 μl of the solution containing the sample, was incubated at 37° C. for 2 min. Factor Xa (25 μl) was added. After incubating 37° C. for 4 min, 25 μl of S-2765 was added. The absorbance of the reaction mixture was measured at 405 nm continuously for 10 min. The absorbance values were plotted against the reaction time. The initial reaction rates as a function of concentration were used to calculate the IC50 values.
The activity of Xa was determined by the rate of the increase of the absorbance at 405 nm. The activity without drugs was defined as 100%. […]

Structure (SMILES) | area under the curve (AUC), anti-Xa activity of plasma samples (factor Xa [1]) | Kd (antithrombin (AT)) [nM] | pharmacodynamic (PD) profiles (factor Xa [2]) | IC50 (bovine factor Xa) [nM]
O=C(O)C1OC(OC2C(COS(=O)(=O)O)OC(OC3C(C(=O)O)OC(OC4C(COS(=O)(=O)O)OC(OC5C(C(=O)O)OC(OC6C(CO)OC(CO)C6O)C(O)C5O)C(NS(=O)(=O)O)C4O)C(OS(=O)(=O)O)C3O)C(NS(=O)(=O)O)C2OS(=O)(=O)O)C(O)C(O)C1OC1OC(COS(=O)(=O)O)C(O)C(O)C1NS(=O)(=O)O (stereo not shown) [construct 2] | 802 | 9.1 ± 0.2 | very similar | 3.6
CO[C@H]1O[C@H](COS(=O)(=O)O)[C@@H](O[C@@H]2O[C@@H](C(=O)O)[C@@H](O[C@H]3O[C@H](COS(=O)(=O)O)[C@@H](O[C@@H]4O[C@H](C(=O)O)[C@@H](O[C@H]5O[C@H](COS(=O)(=O)O)[C@@H](O)[C@H](O)[C@H]5NS(=O)(=O)O)[C@H](O)[C@H]4O)[C@H](OS(=O)(=O)O)[C@H]3NS(=O)(=O)O)[C@H](O)[C@H]2OS(=O)(=O)O)[C@H](O)[C@H]1NS(=O)(=O)O [ARIXTRA®, fondaparinux sodium, reference compound] | 457 |  | very similar | 3
